Source: PMC12867150, “A fungi-derived cyclic peptide enhances Th9-mediated antitumor immunity by targeting ZAP70 and SREBP1” (The Journal of Clinical Investigation, 2025)
“And” between values parts separate entries of the source, which are not always exact repeats. Equal entries are not always repeated. Structures can show the parent of a compound that is named as a salt.

Assays:
Format in all cases: cell-based, mouse
[1] = system: gene expression in Th9 cells; assay: Bulk RNA-seq of Th9 cells (Figure 3A-D, 7G, S5B, S8G-H); design: key to Il13 expression (RNA-seq) / Batf expression (RNA-seq) / Il4 expression (RNA-seq) / Il5 expression (RNA-seq) / Il9 expression (RNA-seq) / Tnfsf15 expression (RNA-seq) / Tnf expression (RNA-seq) / Lta expression (RNA-seq) / Fasl expression (RNA-seq) / Tnfsf9 expression (RNA-seq) / Tnfsf14 expression (RNA-seq): FPKM (fragments per kilobase of transcript per million mapped reads); conditions: for cluster 2 genes (calcium ion transport, glycolysis, oxidative phosphorylation, ERK signaling) / lipid biosynthesis genes: RNA-seq clustering; for Fpkm of Slc2a1: Supplemental Figure 5B
Description: RNA integrity and concentration were assessed by Majorbio Technologies. RNA-seq libraries were constructed following standard Illumina protocols and sequenced using a paired-end strategy on an Illumina platform.
Raw sequencing reads were quality filtered and adapter trimmed using Trim Galore (v0.6.x) and then aligned to the mouse reference genome (GRCm38) with HISAT2 (v2.2.x). Gene-level quantification was performed using featureCounts (v2.0.x) to obtain raw read counts, which were subsequently normalized as fragments per kilobase of transcript per million mapped reads for exploratory analyses and data visualization.
Differential gene expression analysis was conducted using DESeq2 (v1.44.0) in R, with significance thresholds set at an adjusted P < 0.05 and absolute fold change ≥1.5. Visualization of transcriptomic profiles included volcano plots generated via ggplot2 (v3.5.1) and heatmaps rendered using pheatmap (v1.0.12), based on raw expression values.
Gene expression clustering was conducted using the R package ClusterGVis (v0.1.2).

PD-1 on Th9 cells = assay: Flow cytometry of PD-1 on Th9 cells in vitro (Figure 5K, 7E, S3D); conditions: for PD-1 expression in Th9 cells: Figure 7E, one per column (n = 4); for PD-1 expression in Th9 cells / PD1 (flow cytometric quantification): individual replicates; for PD-1 expression: result in words; for PD1 (flow cytometric quantification): Figure 5K, (n = 5); for Expression of PD-1 in Th9: Supplemental Figure 3D
Description: (§1) Naive CD4^+ T cells were isolated from the spleens of C57BL/6J or CD45.1^+ OT-II mice using the MojoSort Mouse CD4 Naive T Cell Isolation Kit (BioLegend, catalog 480040), following the manufacturer’s protocol. Purified cells were cultured in RPMI-1640 medium supplemented with 10% FBS, 1% penicillin-streptomycin, and 0.1% β-mercaptoethanol (Gibco, catalog 21985023).
(§2) T cell polarization was initiated under plate-bound anti-CD3 (2 μg/mL, clone 17A2, BioXCell, catalog BE0002) and soluble anti-CD28 (1 μg/mL, clone 37.51, BioXCell, catalog BE0015-1) stimulation, with the addition of cytokines and neutralizing antibodies specific to each subset. For Th9 cells, these included IL-4 (10 ng/mL, Peprotech, catalog 400-04), TGF-β (1 ng/mL, EPOTO Biotech, catalog HF-2021), anti–IL-12 (5 μg/mL, clone C17.8, BioXCell, catalog BE0051), and anti–IFN-γ (10 μg/mL, clone XMG1.2, BioXCell, catalog BE0055); for Th1 cells, these included IL-12 (10 ng/mL, GenScript, catalog Z03211-50) and anti–IL-4 (5 μg/mL, clone 11B11, BioXCell, catalog BE0045); for Th2 cells, these included IL-4 (50 ng/mL), anti–IFN-γ (20 μg /mL), anti–IL-12 (5 μg/mL), Th17 cells: IL-6 (20 ng/mL, EPOTO Biotech, catalog MF-1006), TGF-β (1 ng/mL), IL-1β (10 ng/mL, Peprotech, catalog AF-211-11B), anti–IFN-γ (10 μg/mL), anti–IL-12 (5 μg/mL), and anti–IL-4 (5 μg/mL); and for Tregs, these included TGF-β (3 ng/mL). After 3 days of initial culture, cells were either collected for downstream assays or continued in extended culture with refreshed cytokines to maintain lineage commitment.
(§3) Details regarding staining panels (human and mouse), reagents (including clones and catalog numbers), acquisition settings, compensation/controls, and analysis procedures are provided in Supplemental Methods.
(§4) BioLegend, Cat. No. 422301 or Mouse TruStain FcX™, BioLegend, Cat. No. 101319) for 10 minutes at 4°C. For surface marker detection, cells were stained with fluorochrome-conjugated monoclonal antibodies in 96-well V-bottom plates and incubated on ice for 30 minutes. After staining, cells were washed twice and resuspended in FACS buffer for analysis.
(§5) Prior to intracellular cytokine staining, cells were restimulated for 4 hours with PMA (Absin, Cat. No. abs9107), ionomycin (Sigma-Aldrich, Cat. No. I0634), and brefeldin A (MedChemExpress, Cat. No. HY-16592). For intracellular cytokine staining, cells were first surface-stained as described above, then fixed and permeabilized using the BD Cytofix/Cytoperm™ kit (BD Biosciences, Cat. No. 554714) according to the manufacturer ’s protocol. Intracellular proteins were stained with directly conjugated antibodies targeting IL-9, IL-17a, IL-4, IFN-γ, TNF-α, FOXP3, p-ZAP70, Perforin, and […]
(§6) Antibodies used for mouse samples included those against IL-9 (PE, clone RM9A4, Biolegend, Cat. No. 514104), IFN-γ (PE, clone XMG1.2, Biolegend, Cat. No.
(§7) Cat. No. 103138), CD4 (APC/Cy7, clone E-AB-F1353UJ, Elabscience, Cat. No.
(§8) AF18028), CD8α (PerCP/Cy5.5, clone E-AB-F1104UJ, Elabscience, Cat. No. […]
(§9) clone E-AB-F1187UH, Elabscience, Cat. No. AF19854), TNF-α (BV421, clone MP6-XT22, Biolegend, Cat. No. 506328), FOXP3 (PE, clone FJK-16s, eBioscience, Cat. No.
(§10) Perforin (APC, clone S16009A, Biolegend, Cat. No. 154303) and Granzyme B (APC, […]
(§11) clone QA16A02, Biolegend, Cat. No. 372203). […]

TNF-α in Th9 cells = assay: Flow cytometry of TNF-α in Th9 cells in vitro (Figure 3F, 5I, 7C, S8M-N); design: TNF expression in Th9 cells / TNF-α expression of Th9 cells: unit not given here; conditions: for TNF expression in Th9 cells: Figure 7C, one per column (n = 4); for TNF (flow cytometric quantification): Figure 5I, (n = 5); for TNF-α expression of Th9 cells: Supplemental Figure 8N
Description: as §1, §2, §3, §4, §5, §6, §7, §8, §9, §10, §11

CD69 on Th9 cells = assay: Flow cytometry of CD69 on Th9 cells in vitro (Figure 5J, 7D); design: CD69 expression in Th9 cells: unit not given here; conditions: for CD69 expression in Th9 cells: Figure 7D, one per column (n = 4); for CD69 expression in Th9 cells / CD69 (flow cytometric quantification): individual replicates; for CD69 (flow cytometric quantification): Figure 5J, (n = 5)
Description: as §1, §2, §3, §4, §5, §6, §7, §8, §9, §10, §11

[2] = single agent, 10 µM, individual replicates
[3] = EpA + fatostatin, result in words
[4] = EpA vs control, adjusted P < 0.05, fold change ≥1.5
[5] = Th9, day 4, samples EPA_1 to EPA_3
[6] = EpA (10 µM) + Fatostatin (10 µM)

CCCc1cc(-c2nc(-c3ccc(C)cc3)cs2)ccn1 [fatostatin, fatostatin hydrobromide, reference compound]
cluster 2 genes (calcium ion transport, glycolysis, oxidative phosphorylation, ERK signaling) ([1]; result in words): further enhanced | lipid biosynthesis genes ([1]; result in words): further suppressed | PD-1 expression in Th9 cells (PD-1 on Th9 cells; single agent, 10 µM): 384 and 402 and 369 and 372 | PD-1 expression (PD-1 on Th9 cells; fatostatin alone or with EpA): induced PD-1 upregulation in control Th9 cells | TNF expression in Th9 cells (TNF-α in Th9 cells; [2]): 2574 and 2507 and 2536 and 2484 | CD69 expression in Th9 cells (CD69 on Th9 cells; single agent, 10 µM): 39.9 and 41.1 and 41.2 and 39.2

anteiso-C15 Leu7 surfactin [EpA]
Fads1 expression [1, 3]: reduced expression | Srebp1 expression [1, 3]: reduced expression | number of downregulated genes [1, 4]: 271 | number of upregulated genes [1, 4]: 228 | cluster 2 genes (calcium ion transport, glycolysis, oxidative phosphorylation, ERK signaling) ([1]; result in words): notably upregulated | lipid biosynthesis genes ([1]; result in words): progressively downregulated | Fpkm of Slc2a1 ([1]; replicate 1): 48.3562 Fpkm | Fpkm of Slc2a1 ([1]; replicate 2): 48.7446 Fpkm | Fpkm of Slc2a1 ([1]; replicate 3): 49.9027 Fpkm | Batf expression (RNA-seq) [1, 5]: 93.0998 and 96.722 and 96.1164 | Fasl expression (RNA-seq) [1, 5]: 9.708 and 9.458 and 10.2176 | Il4 expression (RNA-seq) [1, 5]: 8.523 and 8.979 and 8.835 | Il5 expression (RNA-seq) [1, 5]: 0.7687 and 0.6368 and 0.9066 | Il9 expression (RNA-seq) [1, 5]: 619.89 and 651.961 and 648.029 | Il13 expression (RNA-seq) [1, 5]: 15.584 and 17.9728 and 14.2881 | Lta expression (RNA-seq) [1, 5]: 41.371 and 42.2064 and 41.7705 | Tnf expression (RNA-seq) [1, 5]: 5.46 and 5.834 and 6.11 | Tnfsf9 expression (RNA-seq) [1, 5]: 1.423 and 1.362 and 1.3365 | Tnfsf14 expression (RNA-seq) [1, 5]: 5.499 and 5.503 and 5.511 | Tnfsf15 expression (RNA-seq) [1, 5]: 0.1165 and 0.1206 and 0.07294 | SLC2A1 expression ([1]; result in words): markedly upregulated | Th9 cytokines (Il9, Il4, Il5, Il13) and Spi1, Batf expression ([1]; result in words): upregulated | cytotoxic effector molecules Tnf, Lta, Fasl ([1]; result in words): strong upregulation | PD-1 expression (PD-1 on Th9 cells; EpA-Th9 cells in vitro): increased PD-1 expression | PD1 (flow cytometric quantification) (PD-1 on Th9 cells; EpA + ERKin combination): 205 and 196 and 199 and 194 and 192 | PD1 (flow cytometric quantification) (PD-1 on Th9 cells; EpA + MEKin combination): 163 and 169 and 166 and 170 and 159 | PD1 (flow cytometric quantification) (PD-1 on Th9 cells; single agent): 986 and 1657 and 450 and 878 and 1491 | PD-1 expression in Th9 cells (PD-1 on Th9 cells; [6]): 424 and 342 and 382 and 324 | PD-1 expression in Th9 cells (PD-1 on Th9 cells; single agent, 10 µM): 366 and 370 and 368 and 374 | Expression of PD-1 in Th9 (PD-1 on Th9 cells; replicate 1): 836 | Expression of PD-1 in Th9 (PD-1 on Th9 cells; replicate 2): 830 | Expression of PD-1 in Th9 (PD-1 on Th9 cells; replicate 3): 871 | Expression of PD-1 in Th9 (PD-1 on Th9 cells; replicate 4): 812 | Expression of PD-1 in Th9 (PD-1 on Th9 cells; replicate 5): 848 | Expression of PD-1 in Th9 (PD-1 on Th9 cells; replicate 6): 842 | PD-1 expression (PD-1 on Th9 cells; fatostatin alone or with EpA): not further increased in EpA-Th9 cells treated with fatostatin | TNF-α production (TNF-α in Th9 cells; [3]): elevated in the combination group | MFI of TNF-α (TNF-α in Th9 cells; EpA-treated Th9 cells, individual replicates, n = 6): 2286 and 2180 and 2244 and 2177 and 2115 and 2169 | TNF (flow cytometric quantification) (TNF-α in Th9 cells; EpA + ERKin combination, individual replicates): 2696 and 2174 and 2281 and 2032 and 1920 | TNF (flow cytometric quantification) (TNF-α in Th9 cells; EpA + MEKin combination, individual replicates): 1415 and 1401 and 1417 and 1456 and 1441 | TNF (flow cytometric quantification) (TNF-α in Th9 cells; single agent, individual replicates): 2873 and 2973 and 3771 and 3384 and 2525 | TNF expression in Th9 cells (TNF-α in Th9 cells; EpA (10 µM) + Fatostatin (10 µM), individual replicates): 3879 and 3735 and 3908 and 3188 | TNF expression in Th9 cells (TNF-α in Th9 cells; [2]): 2951 and 2896 and 2950 and 2779 | TNF-α expression of Th9 cells (TNF-α in Th9 cells; MigR1, replicate 1): 2796 | TNF-α expression of Th9 cells (TNF-α in Th9 cells; MigR1, replicate 2): 2837 | TNF-α expression of Th9 cells (TNF-α in Th9 cells; MigR1, replicate 3): 2787 | TNF-α expression of Th9 cells (TNF-α in Th9 cells; SREBP1, replicate 1): 2060 | TNF-α expression of Th9 cells (TNF-α in Th9 cells; SREBP1, replicate 2): 1962 | TNF-α expression of Th9 cells (TNF-α in Th9 cells; SREBP1, replicate 3): 1934 | EpA-induced TNF-α increase (protein) upon SREBP1 overexpression (TNF-α in Th9 cells; result in words): markedly suppressed | CD69 expression (CD69 on Th9 cells; [3]): elevated in the combination group | CD69 (flow cytometric quantification) (CD69 on Th9 cells; EpA + ERKin combination): 27.9 and 23.5 and 24 and 26.9 and 24.1 | CD69 (flow cytometric quantification) (CD69 on Th9 cells; EpA + MEKin combination): 20.8 and 22.9 and 21.2 and 18.2 and 18.1 | CD69 (flow cytometric quantification) (CD69 on Th9 cells; single agent): 59.4 and 133 and 54.7 and 74.6 and 155 | CD69 expression in Th9 cells (CD69 on Th9 cells; [6]): 54.9 and 46.3 and 45.8 and 49.3 | CD69 expression in Th9 cells (CD69 on Th9 cells; single agent, 10 µM): 41.4 and 40.9 (2×) and 41.7
